Source: article PMC7794297
“And” between values parts separate entries of the source, which are not always exact repeats. Equal entries are not always repeated. Where two headings read alike, the source gives them in different places.

How the values were obtained:
scrambled RNase A [1] = target: T1, scrambled RNase A (Bos taurus, UniProt P61823); assay: Folding of scrambled RNase A at pH 7.8 (cCMP hydrolysis); conditions: for V0: Secox / GSH 1 mM/5 mM
T1 sequence (P61823 27-150): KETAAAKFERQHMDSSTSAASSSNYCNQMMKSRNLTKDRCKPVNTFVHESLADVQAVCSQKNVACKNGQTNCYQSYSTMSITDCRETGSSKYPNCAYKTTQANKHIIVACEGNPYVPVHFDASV

[2] = Equilibration of the thiol-disulfide DCL of building blocks 1-4 followed by HPLC-MS
Description: DMSO percentage is 2.5% v/v. […] DCLs were analyzed by HPLC-MS until equilibration without stirring at 6 °C.
Control DCL. […] DMSO percentage is 2.5% v/v. Regarding Secox catalyzed DCL, different stocks of Secox were carried out in order to study the percentages of Secox. […] The DCLs were prepared at 6 °C without stirring and analyzed in several hours until the complete stabilization.

[3] = Spermine-templated DCL of building blocks 2 and 3; conditions: two building blocks DCL with spermine; 5% (mol); control 96 h
Description: (§1) Building blocks 2 and 3 equipped with carboxylate moieties to establish interactions with the protonated amine groups of the spermine were allowed to equilibrate at pH 7.8 and 6 °C (Fig. 8a). As expected in our control experiment, the major component in the absence of spermine was the linear tetramer (2)2(3)2. After the addition of spermine, the linear tetramer “decomposed” in order to form mainly the cyclic tetramer of (2)4, and the (3)2 dimer (Fig. 8a). As it was reported, several studies determined that the spermine was threaded through the macrocycle fixing the configuration to a highly symmetric stereoisomer of (2)4[36]. […] The precise composition of the DCL (with and without spermine), was assessed by measuring the relative peak area (RPA). Indeed, the normalized change of RPA was used to quantify the spermine influence in the outcome (Supplementary Fig. 42)[46]. The same template (spermine) was tested in our reference DCL of four building blocks (1–4) in the absence and presence of Secox (Fig. 8b). […] Additionally, two different templates were tested to confirm the absence of conflict between selenocystine and the templating effect. Spermidine and NADPH were introduced in our 4 building blocks DCL (1–4) in the absence and presence of Secox, leading to the amplification of different species and getting the same results as the non-catalyzed DCLs (Supplementary Figs. 44, 45, Supplementary Tables 7–10, and Supplementary Methods).
The DCL was stabilized at 96 h. […] The mixture was stabilized after 24 h. […] The DCL was stabilized at 96 h. […] The DCL was analyzed in 96 h after equilibration. DCLs were performed without stirring at 6 °C and analyzed by HPLC-MS.

glucose oxidase (GOx) = glucose oxidase (GOx) (Aspergillus niger, UniProt P13006); assay: GOx tolerance to Secox, Trp emission fluorescence; design: purchased Sigma Aldrich
scrambled RNase A [4] = target: T1, scrambled RNase A; assay: Folding of scrambled RNase A at pH 5.4 (cCMP hydrolysis); conditions: in <2 h
[5] = Slow DCL system of building blocks 5-8, equilibration by HPLC-MS; conditions: slow DCL 5-8; 5% mol (18.3 μM); 20% (v/v) DMSO, pH 7.8, 6 °C; control 192 h
Description: To broaden the scope of selenocystine we tested this catalyst in a slow disulfide-exchange system. The DCL comprised 4 building blocks (5–8)[37], three of them being aliphatic thiols with pKa values around 9 to slow down the exchange reaction (Fig. 7a). Due to solubility issues, a 20% (v/v) DMSO was added and the reaction mixture was diluted. […] The different oligomers were identified by HPLC-MS (Supplementary Figs. 21–30).
Control DCL. […] The DCLs were analyzed until stabilization.

[6] = Spermine-templated DCL of building blocks 1-4; conditions: four building blocks DCL with spermine; 5% mol
Description: as §1
The mixture was stabilized in 96 h. […] The mixture was stabilized after 24 h. […] It was stabilized in 24 h. […] DCL was equilibrated in 96 h. DCLs were performed without stirring at 6 °C and analyzed by HPLC-MS.

[7] = for Kobs: 2.5% (v/v) DMSO, 190 μM 3, Tris pH 7.8, 6 °C

glucose oxidase (GOx), sequence (P13006 17-605): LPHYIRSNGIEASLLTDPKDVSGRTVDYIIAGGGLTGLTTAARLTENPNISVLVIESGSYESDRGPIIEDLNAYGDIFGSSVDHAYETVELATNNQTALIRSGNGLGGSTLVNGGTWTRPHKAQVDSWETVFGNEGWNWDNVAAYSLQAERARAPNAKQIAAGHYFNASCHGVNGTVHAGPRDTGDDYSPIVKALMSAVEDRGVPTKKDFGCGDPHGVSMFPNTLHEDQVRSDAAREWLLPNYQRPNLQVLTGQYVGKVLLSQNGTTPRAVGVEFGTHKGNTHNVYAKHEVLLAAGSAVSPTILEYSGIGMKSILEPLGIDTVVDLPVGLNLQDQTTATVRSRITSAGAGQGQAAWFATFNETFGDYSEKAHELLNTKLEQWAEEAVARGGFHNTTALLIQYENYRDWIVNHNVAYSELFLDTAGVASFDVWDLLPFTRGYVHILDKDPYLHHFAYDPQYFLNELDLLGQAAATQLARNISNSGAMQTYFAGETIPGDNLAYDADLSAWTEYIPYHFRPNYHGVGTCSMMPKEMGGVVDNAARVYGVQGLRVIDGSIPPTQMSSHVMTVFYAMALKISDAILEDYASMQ

## N[C@@H](C[Se][Se]C[C@H](N)C(=O)O)C(=O)O [Secox, selenocystine]
Scrambled RNase A [1]; 20 mM Secox / 100 mM GSH, pH 7.8
  effect on scrambled RNase A folding: partial inactivation of the protein
Scrambled RNase A [1]; 33 min
  V0: 73.3333 min⁻¹
Scrambled RNase A [1]; 65 min
  V0: 91.6667 min⁻¹
Scrambled RNase A [1]; 95 min
  V0: 91.6667 min⁻¹
Scrambled RNase A [1]; 123 min
  V0: 100 min⁻¹
Scrambled RNase A [1]; 188 min
  V0: 101.667 min⁻¹
Scrambled RNase A [1]; 232 min
  V0: 98.3333 min⁻¹
Scrambled RNase A [1]; 356 min
  V0: 105 min⁻¹
Scrambled RNase A [1]; 1440 min
  V0: 101.667 min⁻¹
Scrambled RNase A [1]; pH 7.8, 1 mM Secox/5 mM GSH, first 65 min
  yield of the correctly folded enzyme: 92%
Scrambled RNase A [1]; scrambled RNase A
  increase of refolding rate by replacing GSSG with Secox: five times
[2]; 190 μM as fifth building block, Tris 20 mM pH 7.8, 6 °C, control 4 days
  DCL equilibration time: 24 h
[2]; 1% mol (5.7 μM), pH 7.8, 6 °C, control 96 h
  DCL equilibration time: 72 h
[2]; 2.5% mol (14.25 μM), pH 7.8, 6 °C, control 96 h
  DCL equilibration time: 48 h
[2]; 5% mol (28.5 μM), pH 7.8, 6 °C, control 96 h
  DCL equilibration time: 24 h
[2]; 10% mol (57 μM), pH 7.8, 6 °C, control 96 h
  DCL equilibration time: 24 h
[3]
  DCL equilibration time: 24 h
Glucose oxidase (GOx); 1 % Secox
  Wavelenght (nm) of GOx Trp fluorescence emission (Supplementary Figure 47 b): 329 nm
Glucose oxidase (GOx); 2.5 % Secox
  Wavelenght (nm) of GOx Trp fluorescence emission (Supplementary Figure 47 b): 329 nm
Glucose oxidase (GOx); 5% Secox
  Wavelenght (nm) of GOx Trp fluorescence emission (Supplementary Figure 47 b): 329 nm
Glucose oxidase (GOx); 7.5 % Secox
  Wavelenght (nm) of GOx Trp fluorescence emission (Supplementary Figure 47 b): 329 nm
Glucose oxidase (GOx); 10 % Secox
  Wavelenght (nm) of GOx Trp fluorescence emission (Supplementary Figure 47 b): 329 nm
Glucose oxidase (GOx); 30 % Secox
  Wavelenght (nm) of GOx Trp fluorescence emission (Supplementary Figure 47 b): 329 nm
Glucose oxidase (GOx); 50 % Secox
  Wavelenght (nm) of GOx Trp fluorescence emission (Supplementary Figure 47 b): 329 nm
Glucose oxidase (GOx); 100 % Secox
  Wavelenght (nm) of GOx Trp fluorescence emission (Supplementary Figure 47 b): 329 nm
Glucose oxidase (GOx); whole range of concentrations measured, up to 100 % mol
  effect on GOx stability (Trp emission maximum): No shift was observed
Scrambled RNase A [4]
  yield of native RNase A: 75%
[5]
  DCL equilibration time: 60 h
[6]
  DCL equilibration time: 24 h
[7]; 1% (mol)
  Kobs: 0.091 ± 0.002 M⁻¹ s⁻¹
[7]; 1% mol
  time until total completion of homodimerization: 3 days
[7]; 2.5% mol
  time until total completion of homodimerization: 2 days
[7]; 5% (mol) catalyst, uncatalyzed 0.014 ± 0.001
  Kobs: 0.259 ± 0.009 M⁻¹ s⁻¹
[7]; 5% Secox
  acceleration over the uncatalyzed reaction: 18 fold
[7]; 5% mol
  time until total completion of homodimerization: 0.917 days and 1 days
[7]; 10% mol
  time until total completion of homodimerization: 0.75 days
